Measurements as given in ChEMBL document CHEMBL1201862, “PubChem BioAssay data set” (2004).
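Following 48 hours of exposure in 96-well plates, responses at five concentrations were used to interpolate endpoints linearly. The concentration for 50% growth inhibition is given as GI50.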 Calls of active or inactive are those of the source. No stated cut-off is given here; in the data, active = GI50 up to about 1.1 µM and inactive = higher.

Experiments:
Test in all cases: NCI-60 cell line screen, 48 h
OVCAR-3 = tested on: OVCAR-3
NCI-H226 = tested on: NCI-H226
SF-295 = tested on: SF-295
SF-268 = tested on: SF-268
786-0 = tested on: 786-0
T47D = tested on: T47D
Hs-578T = tested on: Hs-578T
SK-OV-3 = tested on: SK-OV-3
NCI/ADR-RES = tested on: NCI/ADR-RES
KM12 = tested on: KM12
Malme-3M = tested on: Malme-3M
NCI-H23 = tested on: NCI-H23
LOX IMVI = tested on: LOX IMVI
HL-60 = tested on: HL-60
UACC-257 = tested on: UACC-257
SR = tested on: SR
HCC 2998 = tested on: HCC 2998
MDA-MB-231 = tested on: MDA-MB-231

Measured: GI50

CC1(C)CN=C(Nc2ccc(F)c(Cl)c2)S1
inactive: OVCAR-3 > 100 µM | NCI-H226 > 100 µM | SF-295 > 100 µM | SF-268 > 100 µM | 786-0 > 100 µM | T47D > 100 µM | Hs-578T > 100 µM | SK-OV-3 > 100 µM | NCI/ADR-RES > 100 µM | KM12 > 100 µM | Malme-3M > 100 µM | NCI-H23 > 100 µM | LOX IMVI > 100 µM | HL-60 > 100 µM | UACC-257 > 100 µM | SR > 100 µM | HCC 2998 > 100 µM

CCCn1c(SCC)c2ccccc2c1-c1nc(F)nc(F)n1
inactive: OVCAR-3 > 100 µM | NCI-H226 > 100 µM | SF-295 > 100 µM | SF-268 > 100 µM | 786-0 > 100 µM | KM12 > 100 µM | Malme-3M > 100 µM | NCI-H23 > 100 µM | LOX IMVI > 100 µM | HL-60 > 100 µM | SR > 100 µM | HCC 2998 > 100 µM

Cc1ccc(C(=O)Nc2ccc(CP(=O)(O)O)cc2CP(=O)(O)O)cc1NC(=O)Nc1cc(C(=O)Nc2ccc(CP(=O)(O)O)cc2CP(=O)(O)O)ccc1C
inactive: OVCAR-3 > 100 µM | NCI-H226 > 100 µM | SF-295 > 100 µM | SF-268 > 100 µM | 786-0 > 100 µM | T47D > 100 µM | Hs-578T > 100 µM | SK-OV-3 > 100 µM | NCI/ADR-RES > 100 µM | KM12 > 100 µM | Malme-3M > 100 µM | NCI-H23 > 100 µM | LOX IMVI > 100 µM | HL-60 > 100 µM | MDA-MB-231 > 100 µM | UACC-257 > 100 µM | HCC 2998 > 100 µM

O=C1CCCC2=C1CC1=C(CCCC1=O)N2c1ccc([N+](=O)[O-])cc1
inactive: OVCAR-3 > 100 µM | NCI-H226 > 100 µM | SF-268 > 100 µM | 786-0 > 100 µM | Hs-578T > 100 µM | SK-OV-3 > 100 µM | NCI/ADR-RES > 100 µM | KM12 > 100 µM | NCI-H23 > 100 µM | LOX IMVI > 100 µM | HL-60 > 100 µM | SR > 100 µM | HCC 2998 > 100 µM

Cc1ccc(S(=O)(=O)OC(c2ccc(Cl)cc2Cl)C2OC(=O)c3ccccc32)cc1 (stereo unspecified)
inactive: OVCAR-3 40.4 µM | NCI-H226 19.7 µM | SF-295 90.2 µM | SF-268 51.3 µM | 786-0 > 100 µM | KM12 36 µM | Malme-3M > 100 µM | NCI-H23 > 100 µM | LOX IMVI > 100 µM | HL-60 21.4 µM | SR 30.6 µM

CC/C(Cl)=N\OC(=O)Nc1ccc(OC)cc1
inactive: OVCAR-3 5.68 µM | NCI-H226 12.2 µM | SF-295 17 µM | SF-268 14.3 µM | 786-0 1.65 µM | T47D 5.89 µM | Hs-578T 14.4 µM | SK-OV-3 17.5 µM | NCI/ADR-RES 6.17 µM | KM12 15.1 µM | Malme-3M 1.84 µM | NCI-H23 15.4 µM | LOX IMVI 2.03 µM | HL-60 1.85 µM | MDA-MB-231 7.06 µM | UACC-257 15.7 µM | HCC 2998 5.58 µM

CCOC(=O)C1NCCc2c1[nH]c1ccccc21 (stereo unspecified)
inactive: OVCAR-3 > 10 µM | SF-295 > 10 µM | SF-268 > 10 µM | 786-0 > 10 µM | T47D > 10 µM | SK-OV-3 > 10 µM | KM12 > 10 µM | Malme-3M > 10 µM | NCI-H23 > 10 µM | HL-60 > 10 µM | MDA-MB-231 > 10 µM | UACC-257 > 10 µM | SR > 10 µM | HCC 2998 > 10 µM

O=S(=O)(O)c1ccccc1/N=N\c1ccc(/N=N/c2c(O)ccc3ccccc23)c(S(=O)(=O)O)c1
inactive: OVCAR-3 > 100 µM | NCI-H226 > 100 µM | SF-295 > 100 µM | SF-268 > 100 µM | 786-0 > 100 µM | T47D > 100 µM | Hs-578T > 100 µM | SK-OV-3 > 100 µM | NCI/ADR-RES > 100 µM | KM12 > 100 µM | Malme-3M 19.4 µM | NCI-H23 > 100 µM | MDA-MB-231 > 100 µM | UACC-257 > 100 µM

C[n+]1cc2cc(O)c(O)cc2c2ccc3cc(O)c(O)cc3c21.c1ccncc1
inactive: OVCAR-3 2.37 µM | NCI-H226 4.86 µM | SF-295 3.39 µM | SF-268 2.18 µM | 786-0 2.03 µM | T47D 5.86 µM | SK-OV-3 4.33 µM | NCI/ADR-RES 2.3 µM | KM12 3.96 µM | Malme-3M 2.59 µM | NCI-H23 2.42 µM | LOX IMVI 2.61 µM | MDA-MB-231 2.79 µM | UACC-257 4.25 µM | SR 2.09 µM | HCC 2998 3.92 µM

CN(C)c1ccc(/C=C2\C[C@H]3[C@@H]4CC=C5C[C@@H](O)CC[C@]5(C)[C@H]4CC[C@]3(C)C2=O)cc1
inactive: OVCAR-3 24.8 µM | NCI-H226 20 µM | SF-295 25.6 µM | SF-268 13 µM | 786-0 16.3 µM | T47D 20.3 µM | SK-OV-3 25.8 µM | NCI/ADR-RES 19.1 µM | KM12 38.5 µM | Malme-3M 19.5 µM | NCI-H23 25.6 µM | LOX IMVI 13.2 µM | HL-60 > 100 µM | MDA-MB-231 18 µM | UACC-257 19.9 µM | SR 29.1 µM

CC(=O)NNC(=S)N/C=C1/C(=O)C=C(C)OC1=O
inactive: OVCAR-3 > 100 µM | NCI-H226 > 100 µM | SF-295 > 100 µM | 786-0 > 100 µM | T47D > 100 µM | SK-OV-3 > 100 µM | NCI/ADR-RES > 100 µM | KM12 > 100 µM | NCI-H23 > 100 µM | LOX IMVI > 100 µM | HL-60 > 100 µM | MDA-MB-231 > 100 µM | UACC-257 > 100 µM | HCC 2998 > 100 µM

CC1CCC2CC1NC(=O)CCOCCC(=O)NC2(C)C (stereo unspecified)
inactive: OVCAR-3 > 100 µM | SF-295 > 100 µM | SF-268 > 100 µM | 786-0 > 100 µM | T47D > 100 µM | SK-OV-3 > 100 µM | KM12 > 100 µM | NCI-H23 > 100 µM | LOX IMVI > 100 µM | HL-60 > 100 µM | MDA-MB-231 > 100 µM | UACC-257 > 100 µM | SR > 100 µM | HCC 2998 > 100 µM

C=CCC1=CC2(OC)C(=O)C(OC)(OC)C1C1C(OC)(OC)C(=O)C(OC)=CC12CC=C (stereo unspecified)
inactive: OVCAR-3 > 100 µM | SF-295 > 100 µM | SF-268 > 100 µM | 786-0 > 100 µM | T47D > 100 µM | Hs-578T > 100 µM | SK-OV-3 67.8 µM | NCI/ADR-RES > 100 µM | KM12 > 100 µM | Malme-3M > 100 µM | NCI-H23 > 100 µM | LOX IMVI > 100 µM | HL-60 > 100 µM | MDA-MB-231 > 100 µM | UACC-257 > 100 µM | HCC 2998 > 100 µM

COC(=O)[C@H](NC(=O)OC(C)(C)C)[C@H]1COC(C)(C)O1
inactive: OVCAR-3 > 100 µM | SF-295 > 100 µM | SF-268 > 100 µM | 786-0 > 100 µM | SK-OV-3 > 100 µM | NCI/ADR-RES > 100 µM | KM12 > 100 µM | Malme-3M 40.1 µM | NCI-H23 > 100 µM | LOX IMVI > 100 µM | HL-60 > 100 µM | MDA-MB-231 > 100 µM | UACC-257 > 100 µM | SR > 100 µM | HCC 2998 > 100 µM

COC1OC(CBr)C(OC(=O)c2ccccc2)C(OS(=O)(=O)c2ccc(C)cc2)C1Br (stereo unspecified)
inactive: OVCAR-3 > 100 µM | SF-295 > 100 µM | SF-268 > 100 µM | 786-0 > 100 µM | SK-OV-3 > 10 µM | KM12 > 100 µM | Malme-3M > 100 µM | NCI-H23 > 100 µM | LOX IMVI > 100 µM | HL-60 > 100 µM | UACC-257 > 100 µM | SR > 100 µM | HCC 2998 > 100 µM

CC(=O)Oc1cc(-c2oc3cc(OC(C)=O)c(C4OC(CO)C(O)C(O)C4O)c(OC(C)=O)c3c(=O)c2O)c(OC(C)=O)cc1O (stereo unspecified)
inactive: OVCAR-3 > 100 µM | NCI-H226 91.8 µM | SF-295 > 100 µM | 786-0 > 100 µM | Hs-578T > 100 µM | SK-OV-3 > 100 µM | NCI/ADR-RES > 100 µM | KM12 > 100 µM | Malme-3M > 100 µM | NCI-H23 > 100 µM | LOX IMVI > 100 µM | HL-60 > 100 µM | MDA-MB-231 > 100 µM | UACC-257 > 100 µM | HCC 2998 > 100 µM

CCOC(=O)C1=C(C)NC(c2ccccc2)=C(C(=O)OCc2ccccc2)C1C#Cc1ccccc1 (stereo unspecified)
inactive: OVCAR-3 > 100 µM | NCI-H226 > 100 µM | SF-295 > 100 µM | SF-268 > 100 µM | 786-0 > 100 µM | T47D > 100 µM | Hs-578T > 100 µM | SK-OV-3 > 100 µM | NCI/ADR-RES > 100 µM | KM12 > 100 µM | Malme-3M > 100 µM | NCI-H23 > 100 µM | LOX IMVI > 100 µM | HL-60 > 100 µM | UACC-257 > 100 µM | SR > 100 µM

CC(C)C[C@H]1[C@@H](OCc2ccccc2)COS(=O)N1[C@H](C)c1ccccc1 (stereo partly specified)
inactive: OVCAR-3 10.2 µM | NCI-H226 10.9 µM | SF-295 4 µM | SF-268 24.2 µM | 786-0 13.9 µM | T47D 9.55 µM | Hs-578T 12 µM | SK-OV-3 14.5 µM | NCI/ADR-RES 18.7 µM | KM12 13.2 µM | Malme-3M 12.7 µM | NCI-H23 26.1 µM | LOX IMVI 13.1 µM | HL-60 8.15 µM | MDA-MB-231 20.2 µM | UACC-257 16 µM
